# Experimental data: patent US8895733B2 (Novartis AG, priority 2010, dated 2014)
# Target: T1, Nav 1.7 (Homo sapiens, UniProt Q15858)
# T1 construct: expressed in transfected cells
# Assay: Whole-cell voltage clamp electrophysiology, manual patch clamp (marker b in Table of Examples)
# Type: cell-based
# Settings: marker b = Manual patch clamp data; read-out: Nav 1.7 activity
# From the text: a.IonWork Quattro data, b=Manual patch clamp data, c=Automated patch clamp data M=Method
# Whole-Cell Voltage Clamp Electrophysiology Assay
# Patch-clamp electrophysiology is considered the gold standard technique for investigation of ion channel function and pharmacology. Using this method, sodium channel currents can be measured in cells, which stably (or transiently) express the sodium channel subtype of interest. Application of compounds during such experiments provides a functional measure of the activity and potency of compounds affecting the ion channel of interest.
# Electrophysiological studies can also be performed using the whole cell configuration of the standard manual patch clamp technique as described in the literature (e.g. Pflugers Arch., 1981, 391(2), 85-100). In this assay, cells that express the voltage-gated sodium channel protein of interest are exposed to the drugs by conventional microperfusion systems, or by a home-built perfusion system. A suitable voltage stimulus protocol is used to activate the voltage-gated sodium channels.
# A suitable voltage stimulus protocol is used to activate voltage-gated sodium channel proteins of interest. A typical stimulus protocol may consist of sweeps of sequential voltage pulses starting from a holding potential (i.e. −65 mV), to a more positive and depolarising test pulse potential (i.e. −10 mV) and finally to a more negative and hyperpolarising potential (i.e. −100 mV). According to the biophysics of the voltage-gated ion channel of interest and interest in channel configuration the voltages and durations of the pulses as well as the overall frequency of sweeps applied might vary. Accordingly, a stimulus protocol was designed to assess compounds due to their potential to block NaV1.7 channels primarily in inactivated state. Selectivity over other voltage-gated sodium channel members was assessed by protocols that reflect the native function of the channels (i.e. heart rate or firing of neurons).
# Electrophysiological studies can also be performed using the whole cell configuration of the standard manual patch clamp technique as described in the literature (e.g. Pflugers Arch., 1981, 391(2), 85-100). In this assay, cells that express the human voltage-gated sodium channel protein of interest are exposed to the drugs by conventional microperfusion systems, or by a home-built perfusion system. A suitable voltage stimulus protocol is used to activate the voltage-gated sodium channels. A suitable voltage stimulus protocol may consist of sequential voltage pulses from a holding potential, each first hyperpolarizing the cell, then depolarizing the channels for a brief period. A particularly suitable holding potential may be a voltage allowing a fraction of channels to remain in an inactivated state, like −60 mV. A suitable hyperpolarizing voltage and duration may be −120 mV for 100 ms, and depolarization voltage and duration may be −20 mV for 25 ms, and a suitable frequency of pulses may be 0.1 Hz, but may also have other parameters. Accordingly, a stimulus protocol was designed to assess compounds due to their potential to block NaV1.7 channels primarily in inactivated state. Selectivity over other voltage-gated sodium channel members was assessed by protocols that reflect the native function of the channels (i.e. heart rate or firing of neurons).
# T1 sequence (Q15858 whole entry): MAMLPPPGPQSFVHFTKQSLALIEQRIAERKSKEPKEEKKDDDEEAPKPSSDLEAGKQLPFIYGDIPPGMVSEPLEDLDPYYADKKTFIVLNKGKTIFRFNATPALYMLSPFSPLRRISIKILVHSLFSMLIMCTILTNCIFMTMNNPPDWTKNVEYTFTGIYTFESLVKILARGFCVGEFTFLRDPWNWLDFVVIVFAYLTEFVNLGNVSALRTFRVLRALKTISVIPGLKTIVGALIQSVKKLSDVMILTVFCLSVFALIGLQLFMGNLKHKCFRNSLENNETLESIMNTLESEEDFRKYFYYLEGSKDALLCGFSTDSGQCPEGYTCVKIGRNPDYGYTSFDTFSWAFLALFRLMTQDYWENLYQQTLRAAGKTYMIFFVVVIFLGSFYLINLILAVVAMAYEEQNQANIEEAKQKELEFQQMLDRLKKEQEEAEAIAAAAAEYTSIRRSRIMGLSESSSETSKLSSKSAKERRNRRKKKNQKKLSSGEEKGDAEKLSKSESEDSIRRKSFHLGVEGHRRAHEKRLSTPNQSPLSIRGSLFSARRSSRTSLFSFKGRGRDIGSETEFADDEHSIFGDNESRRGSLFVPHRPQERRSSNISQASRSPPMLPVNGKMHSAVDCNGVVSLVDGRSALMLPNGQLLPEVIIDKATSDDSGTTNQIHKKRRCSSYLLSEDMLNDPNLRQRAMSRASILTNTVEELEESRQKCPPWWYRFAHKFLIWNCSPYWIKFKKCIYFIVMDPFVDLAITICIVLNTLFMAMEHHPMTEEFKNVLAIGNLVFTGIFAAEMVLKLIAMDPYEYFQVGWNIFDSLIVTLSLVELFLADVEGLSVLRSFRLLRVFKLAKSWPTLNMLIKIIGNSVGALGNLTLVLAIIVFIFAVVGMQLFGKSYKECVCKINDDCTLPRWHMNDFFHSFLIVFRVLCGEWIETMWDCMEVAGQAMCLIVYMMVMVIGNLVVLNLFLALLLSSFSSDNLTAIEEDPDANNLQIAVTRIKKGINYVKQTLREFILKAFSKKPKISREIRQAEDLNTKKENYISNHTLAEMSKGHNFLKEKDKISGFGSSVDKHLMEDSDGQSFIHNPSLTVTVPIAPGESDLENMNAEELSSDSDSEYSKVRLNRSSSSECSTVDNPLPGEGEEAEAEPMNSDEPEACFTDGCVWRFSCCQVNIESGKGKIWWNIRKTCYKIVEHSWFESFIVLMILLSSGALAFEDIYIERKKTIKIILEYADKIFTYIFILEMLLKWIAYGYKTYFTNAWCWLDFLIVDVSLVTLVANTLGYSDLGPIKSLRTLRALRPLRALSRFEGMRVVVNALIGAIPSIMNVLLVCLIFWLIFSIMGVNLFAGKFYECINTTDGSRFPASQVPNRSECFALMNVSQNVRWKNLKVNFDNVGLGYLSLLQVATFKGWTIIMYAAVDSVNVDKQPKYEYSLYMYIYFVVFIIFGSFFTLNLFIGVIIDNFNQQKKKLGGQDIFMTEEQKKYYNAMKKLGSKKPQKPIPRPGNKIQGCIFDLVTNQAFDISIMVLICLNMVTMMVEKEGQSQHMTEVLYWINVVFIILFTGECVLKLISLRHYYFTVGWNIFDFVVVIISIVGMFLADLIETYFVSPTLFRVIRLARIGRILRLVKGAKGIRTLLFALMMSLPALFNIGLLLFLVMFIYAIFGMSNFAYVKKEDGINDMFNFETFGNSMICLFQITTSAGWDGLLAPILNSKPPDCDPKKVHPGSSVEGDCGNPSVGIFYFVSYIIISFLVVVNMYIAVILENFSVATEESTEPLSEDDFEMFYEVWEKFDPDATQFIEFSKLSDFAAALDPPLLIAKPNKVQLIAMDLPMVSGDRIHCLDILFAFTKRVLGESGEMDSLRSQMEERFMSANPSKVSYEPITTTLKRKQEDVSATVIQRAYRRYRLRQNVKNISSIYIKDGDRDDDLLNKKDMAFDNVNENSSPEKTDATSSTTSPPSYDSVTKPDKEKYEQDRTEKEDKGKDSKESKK
row,IC50,SMILES
1,97 nM,"CN(c1ccccc1)c1nc(N)nc(-c2noc(C3CCN(Cc4ccccc4)C3)n2)n1 (centres unmarked) [Example 207, 6-[5-(1-benzylpyrrolidin-3-yl)-1,2,4-oxadiazol-3-yl]-2-N-methyl-2-N-phenyl-1,3,5-triazine-2,4-diamine]"
2,283 nM,"CN(c1ccccc1)c1nc(N)nc(-c2noc(N3CCC(COCC4CC4)CC3)n2)n1 [Example 216, 6-(5-{4-[(Cyclopropylmethoxy)methyl]piperidin-1-yl}-1,2,4-oxadiazol-3-yl)-2-N-methyl-2-N-phenyl-1,3,5-triazine-2,4-diamine]"
3,761 nM,"COC1CCN(c2nc(-c3nc(N)nc(Nc4ccccc4)n3)no2)CC1 [Example 238, 6-[5-(4-methoxypiperidin-1-yl)-1,2,4-oxadiazol-3-yl]-2-N-phenyl-1,3,5-triazine-2,4-diamine]"
4,815 nM,"CN(c1ccccc1)c1nc(N)nc(-c2noc(-c3ccn(CC(F)(F)F)n3)n2)n1 [Example 256, 2-N-Methyl-2-N-phenyl-6-{5-[1-(2,2,2-trifluoroethyl)-1H-pyrazol-3-yl]-1,2,4-oxadiazol-3-yl}-1,3,5-triazine-2,4-diamine]"
5,400 nM,"CN(c1ccccc1)c1nc(N)nc(-c2noc(C(=O)N3CCC(OCC(F)(F)F)CC3)n2)n1 [Example 262, 2-N-methyl-2-N-phenyl-6-(5-{[4-(2,2,2-trifluoroethoxy)piperidin-1-yl]carbonyl}-1,2,4-oxadiazol-3-yl)-1,3,5-triazine-2,4-diamine]"
6,945 nM,"Cc1cccc(-c2nc(-c3nc(N)nc(N(C)c4ccccc4)n3)no2)n1 [Example 271, 2-N-methyl-6-[5-(6-methylpyridin-2-yl)-1,2,4-oxadiazol-3-yl]-2-N-phenyl-1,3,5-triazine-2,4-diamine]"
7,1060 nM,"CN(c1ccccc1)c1nc(N)nc(-c2noc(-c3ncccn3)n2)n1 [Example 278, 2-N-methyl-2-N-phenyl-6-[5-(pyrimidin-2-yl)-1,2,4-oxadiazol-3-yl]-1,3,5-triazine-2,4-diamine]"
8,308 nM,"COc1cnc(-c2nc(-c3nc(N)nc(N(C)c4ccccc4)n3)no2)c(OC)c1 [Example 282, 6-[5-(3,5-Dimethoxypyridin-2-yl)-1,2,4-oxadiazol-3-yl]-2-N-methyl-2-N-phenyl-1,3,5-triazine-2,4-diamine]"
9,24 nM,"Nc1nc(Nc2ccccc2)nc(-c2noc(-c3ccc(COCC(F)(F)F)nc3)n2)n1 [Example 303, 2-N-phenyl-6-(5-{6-[(2,2,2-trifluoroethoxy)methyl]pyridin-3-yl}-1,2,4-oxadiazol-3-yl)-1,3,5-triazine-2,4-diamine]"

# Same assay, conditions: marker b: Manual patch clamp data; read-out: Nav 1.7 activity
row,IC50,SMILES
1,2220 nM,"CN(c1ccccc1)c1nc(N)nc(-c2noc(-c3cncc(N)c3)n2)n1 [Example 54, 6-[5-(5-Amino-pyridin-3-yl)-[1,2,4]oxadiazol-3-yl]-N-methyl-N-phenyl-[1,3,5]triazine-2,4-diamine]"
2,561 nM,"CN(c1ccccc1)c1nc(N)nc(-c2noc(-c3ccn[nH]3)n2)n1 [Example 61, N-Methyl-N-phenyl-6-[5-(2H-pyrazol-3-yl)-[1,2,4]oxadiazol-3-yl]-[1,3,5]triazine-2,4-diamine]"
3,21 nM,"COc1cccc(F)c1-c1nc(-c2nc(N)nc(N(C)c3ccccc3)n2)no1 [Example 81, 6-[5-(2-Fluoro-6-methoxy-phenyl)-[1,2,4]oxadiazol-3-yl]-N-methyl-N-phenyl-[1,3,5]triazine-2,4-diamine]"
4,195 nM,"COC(=O)c1ccc(-c2nc(-c3nc(N)nc(N(C)c4ccccc4)n3)no2)s1 [Example 82, 5-{3-[4-amino-6-(methyl-phenyl-amino)-[1,3,5]triazin-2-yl]-[1,2,4]oxadiazol-5-yl}-thiophene-2-carboxylic acid methyl ester]"
5,93 nM,"CN(c1nc(N)nc(-c2noc(-c3ccco3)n2)n1)c1cc(F)ccc1F [Example 104, N-(2,5-Difluoro-phenyl)-6-(5-furan-2-yl-[1,2,4]oxadiazol-3-yl)-N-methyl-[1,3,5]triazine-2,4-diamine]"
6,59 nM,"Cc1ccc(F)c(N(C)c2nc(N)nc(-c3noc(-c4ccco4)n3)n2)c1 [Example 105, N-(2-Fluoro-5-methyl-phenyl)-6-(5-furan-2-yl-[1,2,4]oxadiazol-3-yl)-N-methyl-[1,3,5]triazine-2,4-diamine]"
7,82 nM,"CN(c1nc(N)nc(-c2noc(-c3ccco3)n2)n1)c1cccc(Cl)c1F [Example 106, N-(3-Chloro-2-fluoro-phenyl)-6-(5-furan-2-yl-[1,2,4]oxadiazol-3-yl)-N-methyl-[1,3,5]triazine-2,4-diamine]"
8,235 nM,"Nc1nc(Nc2cc(Cl)ccc2F)nc(-c2noc(-c3ccco3)n2)n1 [Example 108, N-(5-Chloro-2-fluoro-phenyl)-6-(5-furan-2-yl-[1,2,4]oxadiazol-3-yl)-[1,3,5]triazine-2,4-diamine]"
9,54 nM,"Nc1nc(Nc2cccc(Cl)c2F)nc(-c2noc(-c3ccco3)n2)n1 [Example 111, N-(3-Chloro-2-fluoro-phenyl)-6-(5-furan-2-yl-[1,2,4]oxadiazol-3-yl)-[1,3,5]triazine-2,4-diamine]"
10,87 nM,"Cc1cccc(Nc2nc(N)nc(-c3noc(-c4ccco4)n3)n2)c1F [Example 112, N-(2-Fluoro-3-methyl-phenyl)-6-(5-furan-2-yl-[1,2,4]oxadiazol-3-yl)-[1,3,5]triazine-2,4-diamine]"
11,118 nM,"Nc1nc(Nc2cccc(F)c2F)nc(-c2noc(-c3ccco3)n2)n1 [Example 113, N-(2,3-Difluoro-phenyl)-6-(5-furan-2-yl-[1,2,4]oxadiazol-3-yl)-[1,3,5]triazine-2,4-diamine]"
12,42 nM,"Nc1nc(Nc2cccc(F)c2)nc(-c2noc(-c3ccco3)n2)n1 [Example 117, N-(3-Fluorophenyl)-6-(5-furan-2-yl-[1,2,4]oxadiazol-3-yl)-[1,3,5]triazine-2,4-diamine]"
13,400 nM,"COCCN(c1ccccc1)c1nc(N)nc(-c2noc(-c3ccco3)n2)n1 [Example 119, 6-(5-Furan-2-yl-[1,2,4]oxadiazol-3-yl)-N-(2-methoxy-ethyl)-N-phenyl-[1,3,5]triazine-2,4-diamine]"
14,635 nM,"CN(c1ccccc1)c1nc(N)nc(-c2noc(-c3ccc(OC(F)(F)F)nc3)n2)n1 [Example 133, 2-N-methyl-2-N-phenyl-6-{5-[6-(trifluoromethoxy)pyridin-3-yl]-1,2,4-oxadiazol-3-yl}-1,3,5-triazine-2,4-diamine]"
15,44 nM,"CN(c1cccc(F)c1)c1nc(N)nc(-c2noc(-c3ccc(OCC4CC4)nc3)n2)n1 [Example 135, 6-{5-[6-(cyclopropylmethoxy)pyridin-3-yl]-1,2,4-oxadiazol-3-yl}-2-N-(3-fluorophenyl)-2-N-methyl-1,3,5-triazine-2,4-diamine]"
16,65 nM,"COCCN(c1ccccc1)c1nc(N)nc(-c2noc(-c3ccc(OCC(F)(F)F)nc3)n2)n1 [Example 156, 2-N-(2-Methoxyethyl)-2-N-phenyl-6-{5-[6-(2,2,2-trifluoroethoxy)pyridin-3-yl]-1,2,4-oxadiazol-3-yl}-1,3,5-triazine-2,4-diamine]"
17,235 nM,"CN(c1ccccc1)c1nc(N)nc(-c2noc(N3CCC(COCC(F)(F)F)CC3)n2)n1 [Example 167, 2-N-Methyl-2-N-phenyl-6-(5-{4-[(2,2,2-trifluoroethoxy)methyl]piperidin-1-yl}-1,2,4-oxadiazol-3-yl)-1,3,5-triazine-2,4-diamine]"
